Assay results from PubChem BioAssay AID857 (Vanderbilt High Throughput Screening Facility, 2007).
Active and inactive are the calls of the source.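 Rule for the calls: active = a full or partial dose-response curve in at least two of three replicate runs; inactive = the rest.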

These compounds were tested against D(1B) dopamine receptor (Homo sapiens) (UniProt P21918) (assay: dopamine D5 receptor modulation at EC30 dopamine, dose response, selectivity assay for D1 allosteric modulator project, cell-based, HEK293, CRE-luciferase, luminescence (AID 857);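 note: HEK 293 cells expressing human D5 with a CRE-driven luciferase reporter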).
D(1B) dopamine receptor (Homo sapiens), sequence (P21918 whole entry, looked up): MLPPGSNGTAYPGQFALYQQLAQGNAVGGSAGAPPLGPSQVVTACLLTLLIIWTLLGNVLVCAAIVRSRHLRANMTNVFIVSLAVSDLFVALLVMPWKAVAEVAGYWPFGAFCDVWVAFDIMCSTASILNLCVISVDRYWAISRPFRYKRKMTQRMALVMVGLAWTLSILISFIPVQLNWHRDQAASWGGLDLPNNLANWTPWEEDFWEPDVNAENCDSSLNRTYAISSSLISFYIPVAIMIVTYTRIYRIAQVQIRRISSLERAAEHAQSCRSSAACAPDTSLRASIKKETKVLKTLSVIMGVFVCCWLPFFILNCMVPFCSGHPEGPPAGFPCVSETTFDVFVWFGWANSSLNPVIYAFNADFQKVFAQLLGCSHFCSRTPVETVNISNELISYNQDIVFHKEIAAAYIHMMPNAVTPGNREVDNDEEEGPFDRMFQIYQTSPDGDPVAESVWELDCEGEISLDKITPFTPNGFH

SMILES | outcome | EC50 [nM]
O=c1[nH]c2cc3c(cc2cc1C(c1nnnn1C1CCCC1)N1CCSCC1)OCCO3 (stereo unspecified) | inactive | 
CC1(C)CN=C(Nc2nc3ccccc3s2)S1 | inactive | 
COc1ccc(S(=O)(=O)N(C)c2ccc(C(=O)N3CCOCC3)cc2)cc1OC | inactive | 
Cn1c(=O)c2c(nc(SCCCO)n2Cc2ccccc2Cl)n(C)c1=O | inactive | 
Fc1ccc(NC2=NCCS2)cc1Cl | inactive | 
c1csc(-c2nn3c(Cn4nnc5ccccc54)nnc3s2)c1 | inactive | 
COc1ccc2c(c1)C(=O)N(c1ccccc1OC)C(=O)C2(C)C | inactive | 
O=C1CSc2ccccc2N1Cc1ccccc1F | inactive | 
Cc1ccc(C2C(C#N)=C(N)Oc3n[nH]c(-c4cccs4)c32)s1 (stereo unspecified) | inactive | 
COC(=O)c1sc2ccccc2c1C(=O)OC | inactive | 
CCCn1c(SCC(=O)Nc2sc(C)c(C)c2C(=O)OCC)nc2c1c(=O)n(C)c(=O)n2C | inactive | 
COc1ccc(OC)c(C2=NOC(C(=O)Nc3cccc(C(C)=O)c3)C2)c1 (stereo unspecified) | inactive | 
CCn1nc(C(=O)OCC(=O)N2c3ccccc3CC2C)c2ccccc2c1=O (stereo unspecified) | inactive | 
Nc1nonc1-n1nnc(C(=O)c2ccccc2)c1-c1ccccc1 | inactive | 
COc1ccc(-c2coc3cc(O)ccc3c2=O)cc1OC | inactive | 
CCn1ncc(C2=NOC(C(=O)NCc3ccccc3)C2)c1C (stereo unspecified) | inactive | 
O=C(CCNS(=O)(=O)c1ccc2c(c1)CCC(=O)N2)NCc1ccc2c(c1)OCO2 | inactive | 
CC(C)C1C(C#N)=C(N)Oc2n[nH]c(-c3ccccc3)c21 (stereo unspecified) | inactive | 
Cc1cc(=O)oc2cc(OCC(=O)NCCc3nc4ccccc4[nH]3)ccc12 | inactive | 
CS(=O)(=O)c1sc2nc(-c3cccs3)cc(-c3ccccc3)c2c1N | inactive | 
O=C(OCCCCN1C(=O)c2ccccc2C1=O)c1n[nH]c2ccccc12 | inactive | 
CCCn1c(=O)c2ccccc2n2c(SCc3nc4ccccc4s3)nnc12 | inactive | 
CCOC(=O)NCCc1ccc(OC)cc1 | inactive | 

SMILES | outcome | EC50 [nM]
CCC(Sc1nc(=O)cc(N)n1CCc1ccccc1)C(=O)Nc1ccccc1C#N (stereo unspecified) | inactive | 
COCCCNc1nc2ccccc2nc1NS(=O)(=O)c1cccs1 | inactive | 
NC(=O)c1oc2ccccc2c1NC(=O)c1ccc(F)cc1 | inactive | 
O=S(=O)(Nc1cc(Cl)ccc1N1CCCCC1)c1cccs1 | inactive | 
CCCNc1nc2c(c(=O)[nH]c(=O)n2C)n1CCc1ccccc1 | inactive | 
O=C(Nc1cc(Cl)ccc1N1CCOCC1)c1cnccn1 | inactive | 
CC1(C)Cc2c(C#N)c(NC3CCCCC3)nc(-c3ccco3)c2CO1 | inactive | 
Cc1sc2nc(CN3CCN(S(=O)(=O)c4cccc5nonc45)CC3)[nH]c(=O)c2c1C | inactive | 
COc1ccccc1-c1nnc2n1N=C(C(C)(C)C)CS2 | inactive | 
COc1ccc(CCNS(=O)(=O)c2ccc3c(c2)OCCO3)cc1OC | inactive | 
CCOc1ccccc1C1NC(=O)NC(C)=C1C(=O)OC1CCCCC1 (stereo unspecified) | inactive | 
COc1ccc(-c2noc(CCN3C(=O)c4ccccc4C3=O)n2)cc1OC | inactive | 
N#Cc1nc(-c2cccs2)oc1NCC1CCCO1 (stereo unspecified) | inactive | 
c1ccc(COc2nsnc2N2CCOCC2)cc1 | inactive | 
CSc1nncc(-c2ccc(F)c(F)c2)n1 | inactive | 
N#CCSc1nc2c(sc(=S)n2Cc2ccco2)c(=O)n1-c1ccc(F)cc1 | inactive | 
c1ccc(C2=Nn3c(nnc3-c3ccncc3)SC2)cc1 | inactive | 
CCOc1nc(NCCc2ccc(OC)c(OC)c2)nc(NC(C)(C)CO)n1 | inactive | 
C/C(N)=C(/C#N)C(=O)CSc1nnc(SCc2ccc(Cl)cc2)s1 | inactive | 
CCN(CCCNC(=O)CN(C)S(=O)(=O)c1cccc2nsnc12)c1cccc(C)c1 | inactive | 
N#CC1=C(N)N(c2ccccc2)C2=C(C(=O)CCC2)C1c1cccs1 (stereo unspecified) | inactive | 
CCCCn1c(=NC(=O)c2ccco2)c(C(=O)OCC)cc2c(=O)n3ccccc3nc21 | inactive | 
Cc1ccc(Oc2ccccc2)c(NC=O)c1 | inactive | 

SMILES | outcome | EC50 [nM]
Cc1[nH]n(-c2ccccc2)c(=O)c1S(=O)(=O)c1ccccc1 | inactive | 
Cc1cc(C)nc(SCC(=O)N2CCCCC2)n1 | inactive | 
Cn1cnc2c1c(=O)n(Cc1ccc(F)cc1Cl)c(=O)n2C | inactive | 
O=c1c2ccccc2nc(SCc2cccc(F)c2)n1Cc1ccco1 | inactive | 
CC1(C)CC(=O)C2=C(C1)OC(N)=C(C#N)C2c1cccc(OC(=O)c2ccco2)c1 (stereo unspecified) | inactive | 
CC(C)Cn1c(-c2cccs2)nc2nc3ccccc3nc21 | inactive | 
CC(C)Cn1c(=O)c2c(c3ccccc31)OC(C)C(=O)N2 (stereo unspecified) | inactive | 
COC(=O)c1c(-c2ccc(F)cc2)csc1NC(=O)c1ccco1 | inactive | 
COC(=O)c1ccc(COc2nc(C)cc(C)c2C#N)o1 | inactive | 
O=S(=O)(c1ccccc1)c1nc(-c2ccco2)oc1N1CCCCCC1 | inactive | 
Cc1ccc(Cn2c(-n3nc(C)cc3C)nc3c2c(=O)[nH]c(=O)n3C)cc1 | inactive | 
COc1ccc(OC)c(N2C(=O)C(Cl)=C(N3CCCCC3)C2=O)c1 | inactive | 
CCCCn1c(O)c(C(C)=NCc2ccc(F)cc2)c(=O)[nH]c1=O | inactive | 
Cc1ccc(-c2cc(-c3ccc(C)o3)nc(N)c2C#N)cc1 | inactive | 
O=C(CCSc1nc2ccccc2o1)N1CCOCC1 | inactive | 
C=CCn1c(SCC(=O)Nc2sc(C)c(C)c2C(=O)OCC)nnc1-c1sc(N)nc1C | inactive | 
Cn1c(=O)c2c(-c3ccccc3)n(N3CCOCC3)cc2n(C)c1=O | inactive | 
CCOC(=O)c1oc2ccc(S(=O)(=O)N3CCOCC3)cc2c1C | inactive | 
COC(=O)c1ccc(OCCn2cnc3ccccc3c2=O)cc1 | inactive | 
N#Cc1ccc(-c2ccco2)nc1SCc1ccccc1 | inactive | 
CCOC(=O)c1sc(NC(=O)CSc2nncs2)c(C(=O)OCC)c1C | inactive | 
O=C(CC1SC(=NC2CCCCC2)NC1=O)Nc1ccccc1 (stereo unspecified) | inactive | 
CN1CCN(CC(O)COCc2ccc3c(c2)OCO3)CC1 (stereo unspecified) | inactive | 

SMILES | outcome | EC50 [nM]
CC(C)Cn1c(=O)c(C(=O)Nc2cnccn2)c(O)c2ccccc21 | inactive | 
COc1ccccc1-n1c(=O)[nH]c2c(C(N)=O)nc(CC(C)C)nc21 | inactive | 
CCOC(=O)c1ccc(N2CN=C3SCC(=O)N3C2)cc1 | inactive | 
CCOC(=O)N1CCC(NC(=O)c2cccc3c2C(=O)N(Cc2cccnc2)C3)CC1 | inactive | 
CNc1nc(C)c(C(=O)OCC(=O)OC)s1 | inactive | 
Cc1ccccc1NC(=O)c1nc[nH]c1C(=O)NCc1ccccc1 | inactive | 
Cc1cccc(Cc2c(C)nc3c(C(=O)NCc4ccco4)cnn3c2C)c1 | inactive | 
COc1cccc(-c2nnc(SCC(=O)Nc3cc(C)on3)o2)c1 | inactive | 
Cn1c(=O)c2[nH]c(NCC3CCCO3)nc2n(-c2ccccc2)c1=O (stereo unspecified) | inactive | 
CCOC(=O)c1oc2ccc(Br)cc2c1NC(=O)CN1CCN(C)CC1 | inactive | 
O=C1COc2ccccc2N1Cc1ccccc1Cl | inactive | 
COc1ccc2cc3c(N)nn(C(=O)Cc4ccccc4OC)c3nc2c1 |  | 635
CCC(C)Nc1nc(OC)nc(N(C)C#N)n1 (stereo unspecified) | inactive | 
COc1ccc(-c2cc(=O)oc3c(C)c(O)c(CN(C)C)cc23)cc1 | inactive | 
Cc1ccc(Nc2nnc(SCc3cc(=O)n4ccsc4n3)s2)c(C)c1 | inactive | 
O=c1cc(-c2ccccc2)c2c([nH]1)CCCC2 | inactive | 
C=CCn1c2ccccc2c2nnc(SCC(=O)NC(C(=O)OC)C(C)C)nc21 (stereo unspecified) | inactive | 
COc1ccccc1NC(=O)N(Cc1ccc2c(c1)OCO2)Cc1nc2ccccc2c(=O)[nH]1 | inactive | 
Cc1cc(C)n(-c2nc3ccccc3nc2Nc2ccc(CC(=O)O)cc2)n1 |  | 1110
COC(=O)c1ccccc1NC(=O)c1ccc2c(c1)OCCO2 | inactive | 
COC(=O)c1cc(NC(=O)CSc2nc(C)cc(=O)[nH]2)cc(C(=O)OC)c1 | inactive | 
CCOC(=O)C1CCCN(C(=O)c2cc(Cl)ccc2Cl)C1 (stereo unspecified) | inactive | 
N#CCSc1ncnc2sc3c(c12)CCC3 | inactive | 

SMILES | outcome | EC50 [nM]
COc1cc(OC)cc(C(=O)Nn2cc(C(=O)N3CCN(C)CC3)c3ccccc3c2=O)c1 | inactive | 
COC(=O)c1c(-c2ccccc2)csc1NC(=O)c1ccco1 | inactive | 
CCOC(=O)CCSc1nc(C)c2ccccc2n1 | inactive | 
COc1ccc(CN(C2CCCC2)S(=O)(=O)c2ccc(-n3cnnn3)cc2)cc1OC | inactive | 
COc1ccc(OC)c(C2C=C(c3ccc(C)c(C)c3)Nc3nnnn32)c1 (stereo unspecified) | inactive | 
CCSc1nc2c(c(=O)n1Cc1ccccc1)SC(C)C2 (stereo unspecified) | inactive | 
O=S1(=O)N=C(N2CCc3ccccc3C2)c2ccccc21 | inactive | 
C=CCNC(=O)C1CC(c2cccc(OC)c2)=NO1 (stereo unspecified) | inactive | 
CCSc1nc(-c2ccco2)ccc1C#N | inactive | 
CCOc1ccc(CC(=O)Nc2c(C(N)=O)oc3ccccc23)cc1OCC | inactive | 
CC(=O)N=c1sc2nc3ccccc3nc2n1N(C(C)=O)C(C)=O | inactive | 
CCC(=O)n1nc(-c2ccco2)nc1N | inactive | 
O=C1C(Cl)=C(NCC2CCCO2)C(=O)N1Cc1ccccc1 (stereo unspecified) | inactive | 
Cc1csc2c(C#N)c(=O)c3c(n12)CCC3 | inactive | 
O=C(OCC#CCSc1nnc(-c2ccc(Br)cc2)o1)c1ccco1 | inactive | 
COc1ccc(CCN(C)C(=O)C2CCCN(Cc3ccc(OC)c(OC)c3)C2)cc1OC (stereo unspecified) | inactive | 
CC(=O)C1=C(C)NC(SCC(=O)c2ccc(F)cc2)=C(C#N)C1c1ccco1 (stereo unspecified) | inactive | 
Cc1ccc(OCCN2C(=O)OC(C)(C)C2(C)O)cc1 (stereo unspecified) | inactive | 
Cc1cc(NCCCn2ccnc2)n2c(nc3ccccc32)c1C#N | inactive | 
